Tested on: D. melanogaster nAChRs
Assay: Comparison of agonist activity between nAChRs expressed in X. laevis oocytes (one-way ANOVA, Kruskal-Wallis);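 for Difference of Imax values: Imax relative to maximal plateau response to ACh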
Format: cell-based
Experimental: We minimised the use of X. laevis according to the UK Animals (Scientific Procedures) Act, 1986. […] Oocytes were defolliculated after collagenase treatment in Ca^2+-free standard oocyte saline (Ca^2+-free SOS). cRNAs of the nAChR subunits and co-factors mixed at a concentration of 0.1 mg/mL was injected into oocytes at a volume of 50 nL. Then the oocytes were incubated in the incubation medium (SOS supplemented with sodium pyruvate (Nacalai Tesque, #13058–12), penicillin-streptomycin (MilliporeSigma, #P4333), gentamycin (Nacalai Tesque, #16672–04), and 4% horse serum (Thermo Fisher Scientific, #26050–070) for 3−4 days prior to electrophysiology.
Each defolliculated X. laevis oocyte was secured in a Perspex recording chamber and perfused with the standard oocyte saline (SOS) containing 0.5 μM atropine (SOSA) at a flow rate of 7−10 mL/min [48]. Two glass electrodes filled with 2 M KCl were impaled into each oocyte and the membrane potential was clamped at -100 mV. […] The peak amplitude of the response was measured and analysed by pCLAMP (Molecular Devices, USA).
Y=Imax/1+10^(logEC50‐X)nH
Where Y is the normalised response, X is log[ligand (M)], EC50 is the half maximal concentration (M), Imax is the maximum normalised response and nH is the Hill coefficient.
Prism software was employed for the statistical analyses. […] One-way ANOVA was used to analyse the differences of the ligand agonist activity in terms of pEC50 on the various nAChRs expressed in X. laevis as well as data obtained with D. melanogaster larvae and adults.

[1] = Dα1/Dβ1/Dβ2 vs. Dα1/Dα3/Dβ1/Dβ2
[2] = Dα1/Dβ1/Dβ2 vs. Dα2/Dα3/Dβ1/Dβ2
[3] = Dα1/Dβ1 vs. Dα1/Dα2/Dα3/Dβ1/Dβ2
[4] = Dα2/Dα3/Dβ1/Dβ2 vs. Dα1/Dα2/Dα3/Dβ1/Dβ2
[5] = Dα2/Dα3/Dβ1 vs. Dα1/Dα2/Dα3/Dβ1
[6] = Dα2/Dα3/Dβ1 vs. Dα1/Dα2/Dα3/Dβ1/Dβ2
[7] = Dα2/Dα3/Dβ1 vs. Dα1/Dα2/Dβ1/Dβ2
[8] = Dα2/Dα3/Dβ1 vs. Dα1/Dα3/Dβ1/Dβ2
[9] = Dα2/Dα3/Dβ1 vs. Dα2/Dα3/Dβ1/Dβ2
[10] = Dα3/Dβ1/Dβ2 vs. Dα1/Dα2/Dα3/Dβ1/Dβ2
[11] = Dα3/Dβ1/Dβ2 vs. Dα1/Dα2/Dβ1/Dβ2
[12] = Dα3/Dβ1/Dβ2 vs. Dα1/Dα3/Dβ1/Dβ2
[13] = Dα3/Dβ1/Dβ2 vs. Dα2/Dα3/Dβ1/Dβ2
[14] = Dα3/Dβ1 vs. Dα1/Dα2/Dα3/Dβ1/Dβ2

With `O=[N+]([O-])NC1=NCCN1Cc1ccc(Cl)nc1` [Imidacloprid, imidacloprid] the “Difference of Imax values” [1] was -0.254, the “Difference of pEC50 values” [1] was -0.53 and the “Difference of Imax values” [2] was -0.049. The “Difference of pEC50 values” [2] was -0.01, the “Difference of Imax values” (Dα1/Dβ1/Dβ2 vs. Dα3/Dβ1/Dβ2) was 0.037 and the “Difference of pEC50 values” (Dα1/Dβ1/Dβ2 vs. Dα3/Dβ1/Dβ2) was -1.29. For the same compound, the “Difference of Imax values” (Dα1/Dβ1 vs. Dα1/Dα2/Dα3/Dβ1) was 0.028, the “Difference of pEC50 values” (Dα1/Dβ1 vs. Dα1/Dα2/Dα3/Dβ1) was 0.08 and the “Difference of Imax values” [3] was -0.020. For the same compound, the “Difference of pEC50 values” [3] was 0.69, the “Difference of Imax values” (Dα1/Dβ1 vs. Dα1/Dα2/Dβ1) was 0.091 and the “Difference of pEC50 values” (Dα1/Dβ1 vs. Dα1/Dα2/Dβ1) was 0.45. The “Difference of Imax values” (Dα1/Dβ1 vs. Dα1/Dα2/Dβ1/Dβ2) was -0.043, the “Difference of pEC50 values” (Dα1/Dβ1 vs. Dα1/Dα2/Dβ1/Dβ2) was 0.71 and the “Difference of Imax values” (Dα1/Dβ1 vs. Dα1/Dα3/Dβ1) was -0.048. For the same compound, the “Difference of pEC50 values” (Dα1/Dβ1 vs. Dα1/Dα3/Dβ1) was -0.42, the “Difference of Imax values” (Dα1/Dβ1 vs. Dα1/Dα3/Dβ1/Dβ2) was -0.208 and the “Difference of pEC50 values” (Dα1/Dβ1 vs. Dα1/Dα3/Dβ1/Dβ2) was -0.36. The “Difference of Imax values” (Dα1/Dβ1 vs. Dα1/Dβ1/Dβ2) was 0.046, the “Difference of pEC50 values” (Dα1/Dβ1 vs. Dα1/Dβ1/Dβ2) was 0.17 and the “Difference of Imax values” (Dα1/Dβ1 vs. Dα2/Dα3/Dβ1) was 0.021. The “Difference of pEC50 values” (Dα1/Dβ1 vs. Dα2/Dα3/Dβ1) was 0.28, the “Difference of Imax values” (Dα1/Dβ1 vs. Dα2/Dα3/Dβ1/Dβ2) was -0.003 and the “Difference of pEC50 values” (Dα1/Dβ1 vs. Dα2/Dα3/Dβ1/Dβ2) was 0.16. For the same compound, the “Difference of Imax values” (Dα1/Dβ1 vs. Dα3/Dβ1) was 0.090, the “Difference of pEC50 values” (Dα1/Dβ1 vs. Dα3/Dβ1) was -1.16 and the “Difference of Imax values” (Dα1/Dβ1 vs. Dα3/Dβ1/Dβ2) was 0.083. For the same compound, the “Difference of pEC50 values” (Dα1/Dβ1 vs. Dα3/Dβ1/Dβ2) was -1.12, the “Difference of Imax values” [4] was -0.017 and the “Difference of pEC50 values” [4] was 0.53. For the same compound, the “Difference of Imax values” [5] was 0.007, the “Difference of pEC50 values” [5] was -0.20 and the “Difference of Imax values” [6] was -0.041. The “Difference of pEC50 values” [6] was 0.41, the “Difference of Imax values” [7] was -0.064 and the “Difference of pEC50 values” [7] was 0.43. The “Difference of Imax values” [8] was -0.229, the “Difference of pEC50 values” [8] was -0.64 and the “Difference of Imax values” (Dα2/Dα3/Dβ1 vs. Dα1/Dβ1/Dβ2) was 0.025. For the same compound, the “Difference of pEC50 values” (Dα2/Dα3/Dβ1 vs. Dα1/Dβ1/Dβ2) was -0.11, the “Difference of Imax values” [9] was -0.024 and the “Difference of pEC50 values” [9] was -0.12. For the same compound, the “Difference of Imax values” (Dα2/Dα3/Dβ1 vs. Dα3/Dβ1/Dβ2) was 0.062, the “Difference of pEC50 values” (Dα2/Dα3/Dβ1 vs. Dα3/Dβ1/Dβ2) was -1.40 and the “Difference of Imax values” [10] was -0.103. The “Difference of pEC50 values” [10] was 1.81, the “Difference of Imax values” [11] was -0.126 and the “Difference of pEC50 values” [11] was 1.83. For the same compound, the “Difference of Imax values” [12] was -0.291, the “Difference of pEC50 values” [12] was 0.76 and the “Difference of Imax values” [13] was -0.086. The “Difference of pEC50 values” [13] was 1.28, the “Difference of Imax values” (Dα3/Dβ1 vs. Dα1/Dα2/Dα3/Dβ1) was -0.062 and the “Difference of pEC50 values” (Dα3/Dβ1 vs. Dα1/Dα2/Dα3/Dβ1) was 1.24. For the same compound, the “Difference of Imax values” [14] was -0.110, the “Difference of pEC50 values” [14] was 1.85 and the “Difference of Imax values” (Dα3/Dβ1 vs. Dα1/Dα2/Dβ1) was 0.001. For the same compound, the “Difference of pEC50 values” (Dα3/Dβ1 vs. Dα1/Dα2/Dβ1) was 1.61, the “Difference of Imax values” (Dα3/Dβ1 vs. Dα1/Dα2/Dβ1/Dβ2) was -0.133 and the “Difference of pEC50 values” (Dα3/Dβ1 vs. Dα1/Dα2/Dβ1/Dβ2) was 1.87. For the same compound, the “Difference of Imax values” (Dα3/Dβ1 vs. Dα1/Dα3/Dβ1) was -0.138, the “Difference of pEC50 values” (Dα3/Dβ1 vs. Dα1/Dα3/Dβ1) was 0.74 and the “Difference of Imax values” (Dα3/Dβ1 vs. Dα1/Dα3/Dβ1/Dβ2) was -0.298. For the same compound, the “Difference of pEC50 values” (Dα3/Dβ1 vs. Dα1/Dα3/Dβ1/Dβ2) was 0.80, the “Difference of Imax values” (Dα3/Dβ1 vs. Dα1/Dβ1/Dβ2) was -0.044 and the “Difference of pEC50 values” (Dα3/Dβ1 vs. Dα1/Dβ1/Dβ2) was 1.33. For the same compound, the “Difference of Imax values” (Dα3/Dβ1 vs. Dα2/Dα3/Dβ1) was -0.069, the “Difference of pEC50 values” (Dα3/Dβ1 vs. Dα2/Dα3/Dβ1) was 1.44 and the “Difference of Imax values” (Dα3/Dβ1 vs. Dα2/Dα3/Dβ1/Dβ2) was -0.093. For the same compound, the “Difference of pEC50 values” (Dα3/Dβ1 vs. Dα2/Dα3/Dβ1/Dβ2) was 1.32, the “Difference of Imax values” (Dα3/Dβ1 vs. Dα3/Dβ1/Dβ2) was -0.007 and the “Difference of pEC50 values” (Dα3/Dβ1 vs. Dα3/Dβ1/Dβ2) was 0.04.
